Measurements: US9968602B2, “Modulation of cell fates and activities by phthalazinediones” (Bach Pharma, Inc., priority 2002, dated 2018)

What was measured:
[1] = test system: mitochondrial transmembrane pores; details: cited from earlier work
[2] = test system: ATM-deficient mice; experiment: Thymic tumor formation and premature degeneration in ATM-deficient mice; type: in vivo; details: ATM deficiency
Source text: In regulatory gene-dependent syndromes of premature aging, including ataxia telangiectasia, Down syndrome, trichothiodystrophy, Bloom's disease, p53 over-activity (De Boer et al., Science 296: 1276-1281, 2002; Tyner et al., Nature 415: 45-50, 2002), in which life and death of specific cell types are aberrant, appropriate treatments in vitro and in vivo with thiol redox modulators have been partially successful.
Other thiol redox modulators, such as N-acetyl cysteine and dehydrolipoic acid, also delay the premature degeneration of cells and the thymomas. Thiol redox modulators also correct the delayed differentiation and excessive production of DNA in ATM-deficient lymphoid cells (Yan et al., FASEB J. 15: 1132-1138, 2001; Lynn et al., unpublished). However, in the ATM-deficient mice, treatment was fully successful only if the thiol redox modulators were applied early, before two weeks of age and before tumor development.
Whether amino phthalazinediones with other thiol redox modulators, which suppress growth of non-transformed ATM-deficient cells in vitro, can fully suppress tumors in vivo, without toxicity, has not been rigorously evaluated. Cross-linking redox modulators such as diamide, menadione, and oxidized phthalazines are known to stop cell growth, activate caspases, and initiate apoptosis in some tumor cells (Pias and Aw, FASEB J. 16: 781-790, 2002).

[3] = test system: MOMU-LV-Ts1 virus; experiment: Movement disorder with paralysis induced by MOMU-LV-Ts1 virus in mice; type: in vivo; details: daily intraperitoneal injections of 200 μg
Source text: In mice infected at 2 days of age with the Ts1 virus, hind limb paralysis occurs with severe wasting, especially of immune organs. In humans infected with HIV, severe immune deficiency with sensory and motor neuropathy also results. In these wasting syndromes with disordered life and death pathways in various cells, some therapeutic attempts with thiol redox modulators other than amino phthalazinediones have been partially successful (Lynn and Wong, NeuroImmunomodulation 4: 277-284, 1997; Yan et al., FASEB J. 15: 1132-1138, 2001). In these studies, phthalazinediones plus thiol redox modulators appear to be sufficient to maintain survival and an adequate intracellular thiol redox potential in brain and in thymus.
Since maintaining this excessive and imbalanced 4 Hz oscillation requires increased […] expenditures, agents such as amino phthalazinediones, which can modulate thiol redox status, downregulate mitochondrial energy production, and gain access to the overactivated STN neurons, can potentially suppress the 4 Hz overactivity and thereby suppress and modulate the downstream network activities responsible for the symptoms. […] Whether this is due to suppression of oscillatory activity in neurons, suppression of virus-induced astrocytic inflammatory responses, or both is under investigation. […]

SMILES	premature degeneration of cells and the thymomas [2]	other results
CN(C)C(=O)/N=N/C(=O)N(C)C [Diamide]	–	opening of mitochondrial transmembrane pores [1]: completely opens mitochondrial transmembrane pores
CC(=O)N[C@@H](CS)C(=O)O [N-acetyl cysteine]	delay	–
Nc1cccc2c([O-])n[nH]c(=O)c12.[Na+] [4-sodium amino phthalazinedione]	–	progress of the movement disorder with paralysis [3]: significantly delay
O=C(O)CCCC[C@@H](S)CCS [dehydrolipoic acid]	delay	–
